We go through one substance from patent publication US20230272368A1, “PRODUCTS AND METHODS FOR DETECTION OF VIRAL NUCLEIC ACID” (priority 2020, published 2023).

The conditions of this data set: compared with sodium dodecyl sulfate (SDS).

In the case of sodium lauroyl sarcosinate [SLS], the “solubility in the compositions” value is “detergent to be substantially more soluble in our”.
